By logD is commonly meant the decadic logarithm of the distribution of all forms, ionised or not, between an organic phase and buffer at a given pH. The term fraction remaining denotes the share of the starting amount still present when the sample was taken. Broadly, the bioavailability is dose-corrected exposure relative to a reference, in per cent. Usually solubility stands for the concentration that dissolves in the medium under given conditions.

Experimental findings from patent US11939403B2, “Peptide-peptoid scaffolds” (The Regents of the University of California, priority 2020, dated 2024) are described below.

The nature of data set [1]: PAMPA permeability under standard (library screen) conditions. Format: in vitro ADME. The conditions noted are these: pure compounds, donor well concentration 20 μM. The text has this: Libraries A and B were synthesized separately as mixtures using solid phase split-pool peptide synthesis, incorporating peptoid side chains as primary amines using the submonomer method. (Zuckermann R N et al. Efficient Method for the Preparation of Peptoids [Oligo(N-Substituted Glycines)] by Submonomer Solid-Phase Synthesis. J Am Chem Soc. (1992) 114, 10646-7. doi: DOI 10.1021/ja00052a076. PubMed PMID: WOS:A1992KD71700076.) The libraries were cleaved, cyclized in solution, and roughly purified using solid phase extraction on C18 media. Parallel artificial membrane permeability assays (PAMPA) were used to measure passive permeabilities; PAMPA permeabilities within each library varied parabolically as a function of A Log P (FIG. 2A).
PAMPA permeability studies on these six pure compounds were performed initially under the same conditions as those used in the original library screen, […] of each compound in the original library. […] Without being bound by theory, it was hypothesized that the pure compounds were precipitating in the donor well or adhering to the walls of the apparatus, and that as mixtures they could act as pseudo-detergents (or mutual blocking agents) to help prevent escape from solution (such as through aggregation or adsorption). […]
On the technique in general: The PAMPA barrier holds no transporters, so it reflects passive diffusion.

A short description of data set [2]: physchem. Particulars: pH 7.4, LogD (oct/w).
Experimental: (§1) For each of these six pure compounds, calculated (atomistic) octanol/water partition coefficient (A Log P), aqueous solubility (Aq. Sol), PAMPA and MDCK permeabilities, experimental octanol/water partition coefficient (Log D (oct/w)), P-gp efflux ratios, microsomal stability, and serum protein binding were determined (Table 1 and FIG. 5).
Data set [3] in a line: Microsomal stability. Format: in vitro ADME. The conditions noted are these: remaining rate after 30 min of incubation with pooled liver microsomes (0.1 mg/mL, rats). In general terms: Microsomes from liver hold many membrane-bound enzymes, among them those of drug oxidation.
Data set [4] can be described thus: Oral bioavailability in mice. The conditions noted are these: mice, oral. Format: in vivo. The text has this:
Based on their permeabilities in PAMPA and MDCK cells, the in vivo pharmacokinetics of 5 of these 6 pure compound library members were investigated (B03 was not included in the oral PK study, because of its low (small) PAMPA and MDCK permeabilities). […] To test whether metabolism and efflux were the main factors contributing to the low oral bioavailability (BA), mice were pretreated with either the CYP inhibitor […] (ABT), the P-gp inhibitor elacridar (GF120918), or a combination of both the CYP and P-gp inhibitors. […] Combining the inhibitors also produced oral bioavailabilities that reflected the compounds' relative PAMPA permeabilities.

Data set [5] has as its target P-gp (Homo sapiens, UniProt P08183). The conditions noted are these: MDCK, 10 μM.
For data set [6] the following is noted: pH 7.4.
Experimental: as §1
Data set [7] concerns MDCK cells.
Experimental: Permeabilities were also measured in a Madin-Darby canine kidney (MDCK) permeability assay, in which the passage of the compound through a semipermeable membrane coated with MDCK cells is measured.
Data set [8] in a line: Aqueous solubility, Japanese Pharmacopoeia Second Fluid (pH 6.8). Particulars: Japanese Pharmacopoeia Second Fluid, pH 6.8, pure compounds, values in text; read-out: Aqueous solubility. The data set is classed as physicochemical.
Experimental: as §1
A short description of data set [9]: PAMPA permeability of pure compounds under sink conditions. Format: in vitro ADME. The conditions noted are these: detergents in donor and acceptor wells (sink conditions). The protocol:
PAMPA permeability studies on these six pure compounds were performed initially under the same conditions as those used in the original library screen, using a concentration of 1 μM in the donor well based on the estimated concentration of each compound in the original library. […] Without being bound by theory, it was hypothesized that the pure compounds were precipitating in the donor well or adhering to the walls of the apparatus, and that as mixtures they could act as pseudo-detergents (or mutual blocking agents) to help prevent escape from solution (such as through aggregation or adsorption). Therefore, the PAMPA permeabilities of the pure compounds using detergents in the donor and acceptor wells as “sink” conditions were re-investigated. Using these conditions, the permeability trends were similar to those observed in the Libraries. […] The PAMPA permeabilities of the scaffold A compounds were high (large) across the entire A Log P range, whereas the permeabilities of scaffold B compounds trended upward (greater) along with A Log P.

In brackets after ≈: the same amount, converted by molar mass. Read-outs that look alike come from different tables or passages of the source. Marks after values point to notes of the source that are not given here. Square brackets hold non-standard residues; d marks the D form. Peptide text beside a SMILES is read from it. NCyclohexylmethylGly = O=C(O)CNCC1CCCCC1; NMeL = CN[C@@H](CC(C)C)C(=O)O; NEtG = CCNCC(=O)O

P-gp, sequence (P08183 whole entry): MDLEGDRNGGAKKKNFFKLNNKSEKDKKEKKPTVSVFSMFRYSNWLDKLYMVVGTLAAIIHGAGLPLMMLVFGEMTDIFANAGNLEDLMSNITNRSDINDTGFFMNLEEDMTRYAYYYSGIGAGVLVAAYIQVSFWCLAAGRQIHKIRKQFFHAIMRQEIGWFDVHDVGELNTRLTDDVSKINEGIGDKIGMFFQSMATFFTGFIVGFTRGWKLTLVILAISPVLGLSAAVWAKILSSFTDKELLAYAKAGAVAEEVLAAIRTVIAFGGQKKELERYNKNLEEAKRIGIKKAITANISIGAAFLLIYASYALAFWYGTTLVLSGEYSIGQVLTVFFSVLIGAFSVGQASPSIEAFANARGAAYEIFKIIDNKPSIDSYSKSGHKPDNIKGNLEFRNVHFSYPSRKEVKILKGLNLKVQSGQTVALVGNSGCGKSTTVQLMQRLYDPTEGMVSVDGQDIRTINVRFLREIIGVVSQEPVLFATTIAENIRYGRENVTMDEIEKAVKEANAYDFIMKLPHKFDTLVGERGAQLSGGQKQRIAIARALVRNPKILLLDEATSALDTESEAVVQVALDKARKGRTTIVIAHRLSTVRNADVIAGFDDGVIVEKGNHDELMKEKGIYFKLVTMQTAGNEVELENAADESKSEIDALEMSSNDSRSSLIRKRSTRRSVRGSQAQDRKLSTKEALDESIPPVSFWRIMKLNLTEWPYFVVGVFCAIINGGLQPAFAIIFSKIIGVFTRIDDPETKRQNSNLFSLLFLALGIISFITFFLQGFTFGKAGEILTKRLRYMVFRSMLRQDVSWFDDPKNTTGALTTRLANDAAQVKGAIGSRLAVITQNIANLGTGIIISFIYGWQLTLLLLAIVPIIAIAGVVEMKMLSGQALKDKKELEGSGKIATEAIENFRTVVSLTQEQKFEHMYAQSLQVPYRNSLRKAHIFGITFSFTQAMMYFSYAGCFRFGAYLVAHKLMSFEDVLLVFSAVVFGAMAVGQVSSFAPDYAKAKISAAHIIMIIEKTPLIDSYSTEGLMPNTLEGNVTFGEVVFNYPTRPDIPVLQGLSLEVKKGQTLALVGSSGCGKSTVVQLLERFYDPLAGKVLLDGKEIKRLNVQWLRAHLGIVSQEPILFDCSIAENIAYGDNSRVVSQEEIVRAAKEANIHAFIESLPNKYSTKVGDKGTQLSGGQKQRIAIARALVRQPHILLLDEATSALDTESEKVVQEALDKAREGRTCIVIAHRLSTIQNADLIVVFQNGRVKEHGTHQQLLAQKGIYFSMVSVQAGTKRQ

In the case of `CCN1CC(=O)N[C@@H](CC(C)C)C(=O)N2CCC[C@@H]2C(=O)N(C)[C@@H](CC(C)C)C(=O)N[C@@H](C)C(=O)N(CC2CCCCC2)CC(=O)N[C@@H](Cc2ccccc2)C(=O)N2CCC[C@@H]2C(=O)N(C)[C@@H](CC(C)C)C(=O)N[C@@H](C)C1=O` [Compound B08] (cyclo([NEtG]L[dP][NMeL]A[NCyclohexylmethylGly]F[dP][NMeL]A)), the PAMPA membrane transport result in [1] is “some membrane transport was observed”. Further, the log distribution coefficient (logD) in data set [2] is > 4.8. This compound came in with a fraction remaining at 0.5 h in data set [3] (rat) of 53%. Further, the “Microsomal Stability” value in data set [3] is given as 53%. Moreover, the “Oral bioavailability, no inhib.” value in [4] (no inhibitors) worked out at 6%. The “Oral bioavailability, +CYP inhib.” value in [4] (pretreatment with 1-aminobenztriazole (CYP inhibitor)) is given as 148^c %. Further, in data set [4] (pretreatment with 1-aminobenztriazole and GF120918), the “Oral bioavailability, +CYP inhib. +P-gp inhib.” value is listed as 101^c %. Further, the “Oral bioavailability, +P-gp inhib.” value in data set [4] (pretreatment with GF120918 (P-gp inhibitor)) worked out at 13%. Further, the bioavailability in data set [4] (mouse, in vivo, po, pretreatment with 1-aminobenztriazole and GF120918, read-out: Oral bioavailability, +CYP inhib. +P-gp inhib.) was > 100%. The “P-gp R-value” in [5] was 19.2. Moreover, the “LogD (oct/w)” value in data set [6] is reported as 4.8. The “MDCK Perm.” value in data set [7] was 15 ×10⁻⁶ cm/s; in [7] (dog), 15.3 ×10⁻⁶ cm/s. Moreover, in [8], the solubility was found to be 20 µg/mL (≈ 18.4 µM). Further, the Papp in [9] (PAMPA, read-out: PAMPA Perm.) turned out to be 50 ×10⁻⁶ cm/s. Moreover, the “PAMPA Perm.” value in data set [9] is >50 ×10⁻⁶ cm/s.
